Source: US12162901B2, “N-acetylated sialic acids and related sialosides” (priority 2016, dated 2024)

What was measured:
[1] = test system: human Siglec-9-Fc (hSiglec-9); assay: Sialoglycan microarray binding of human Siglec-9-Fc; conditions: without esterase treatment (FIG. 3A)
Procedure: The synthesized glycan Neu5Ac9NAcα3Galβ4GlcβProNH2 was used in a glycan library for glycan microarray studies. Glycan microarrays were fabricated using epoxide-derivatized slides (Corning by Thermo Fisher Scientific) and Arrayit SpotBot® Extreme Microarray Spotter. The arrays were printed with Stealth SMP3 microarray spotting pins from ArrayIt (Sunnyvale, CA, USA) generating 100 μm diameter spots. 4 pins were used; with each pin printing 4 replicate spots/well. The glycoconjugates were prepared at 100 μM concentration in an optimized printing buffer (300 mM phosphate buffer, pH 8.4). They were then distributed into a 384-well source plate in 20 μL per well. To monitor printing quality, 4 replicate-wells of human IgG (Jackson ImmunoResearch) was used at 100 μg/ml (in PBS) for each printing-pin. One complete array was printed on each slide (within approx 12 hour/˜28 slides). The humidity level in the arraying chamber was maintained at about 60-65% during printing. Printed slides were left on spotter deck overnight, allowing humidity to drop to ambient levels. Printed glycan microarray slides were blocked by 50° C. pre-warmed blocking solution (0.1 M Tris-HCl, 0.05 M ethanolamine, pH 9.0, 1 h). They were then washed twice with 50° C. pre-warmed water and dried. Slides were packed, vacuum-sealed and stored at RT until used.
(§1) To assure the quality of the printed slides, one or two slides were used for quality control using antibodies, lectins and serum samples with known glycan binding specificity. For glycan array binding, slides were fitted in a multi-well microarray hybridization cassette (AHC4X8S, ArrayIt, Sunnyvale, CA, USA) to divide into 8 subarrays. The subarrays were blocked with Ovalbumin (1% w/v) in PBS (pH 7.4) for 1 h at RT, with gentle shaking. […] The data were further analyzed with Excel. […] The binding specificity to glycoconjugates for each protein was plotted based on the RFU (Relative Fluorescence Units), average fluorescence value for 4 replicates, versus glycan IDs. The standard deviations were calculated and the error bars were found for each glycan binding. […]

[2] = test system: porcine torovirus hemagglutinin-esterase (PToV-P4-Fc, esterase inactivated); assay: Sialoglycan microarray binding of PToV-P4-Fc (esterase inactive); conditions: without esterase treatment (FIG. 3A)
[3] = test system: PToV-P4-Fc (esterase active); assay: Treatment of glycan microarray with esterase active PToV, then probe binding; format: biochemical, porcine torovirus; conditions: 20 μg/mL PToV-P4-Fc (esterase active), 2 h, RT; FIG. 3B vs FIG. 3A
Procedure: as §1, with “shaking. For the esterase activity studies on the array, after removing the blocking solution, slides were first treated with 20 μg/mL PToV-P4-Fc (esterase active) in blocking buffer for 2 h at RT and then washed with PBS in 0.1% Tween 20 and then PBS (10 min/wash with shaking). Subsequently, diluted protein samples in blocking solution with various concentrations were added to each subarray (both esterase treated and non-treated slides). After incubating the protein samples for 2 h at RT with gentle shaking, the slides were washed with PBS in 0.1% Tween 20 and then PBS (10 min/wash with shaking).” for “shaking.”

[4] = test system: BJA-B K20 cells; assay: Feeding of free sialic acids to BJA-B K20 cells, PToV probes, flow cytometry; format: cell-based, human
[5] = test system: human CD22-Fc/Siglec-2; assay: Feeding of free sialic acids to BJA-B K20 cells, probing with human CD22-Fc, flow cytometry; format: cell-based; conditions: 3 mM, 3 days of feeding
Procedure: Cell Culture and Sugar Supplementation.
Flow Cytometry. Cells were washed with PBS and incubated with 10 μg/mL of PToV probes in PBS with 1% BSA and 10 mM EDTA for 30 minutes on ice. Subsequently, cells were washed with PBS and incubated with PE goat anti-human IgG antibody for 30 minutes on ice. After an additional washing step, the cells were analyzed by FACSCalibur (BD).
After 3 days of feeding, BJA-B K20 cells were probed with human CD22-Fc/Siglec-2 to detect ligands (FIG. 7). […] However, when the cells were grown in the presence of Neu5Ac9NAc, the expression of the CD22 ligand was minimal (FIG. 7C). […] This supports previous observations that human CD22-Fc recognizes α2-6-linked sialosides with Neu5Ac or N-glycolylneuraminic acid (Neu5Gc) as the preferred naturally existing sialic acid form and 9-O-acetyl modification on sialic acid blocks the binding.

[6] = test system: BJA-B K20 cells; assay: Feeding of free sialic acids to BJA-B K20 cells, DMB derivatization and HPLC of membrane sialic acids; conditions: 1 mM for 3 days; sialic acids released with Vibrio cholerae neuraminidase
[7] = De-O-acetylation of 9-OAc glycan during glycan microarray process (DMB derivatization, HPLC); format: physicochemical
[8] = biological target: T1, wild-type PmST1 (α2-3-sialidase activity) (Pasteurella multocida, UniProt Q15KI8); assay: Sialidase substrate specificity of Leg glycosides (HPLC/capillary electrophoresis), PmST1; format: biochemical; conditions: 37° C., 16 hs, CMP (0.4 mM), pH 5.5
T1 construct: made in house

[9] = biological target: T2, human cytosolic sialidase hNEU2 (Homo sapiens, UniProt Q9Y3R4); assay: Sialidase substrate specificity of Leg glycosides (HPLC/capillary electrophoresis), hNEU2; format: biochemical; conditions: 37° C., 16 hs, pH 5.0
T2 construct: made in house
T2 sequence (Q9Y3R4 whole entry): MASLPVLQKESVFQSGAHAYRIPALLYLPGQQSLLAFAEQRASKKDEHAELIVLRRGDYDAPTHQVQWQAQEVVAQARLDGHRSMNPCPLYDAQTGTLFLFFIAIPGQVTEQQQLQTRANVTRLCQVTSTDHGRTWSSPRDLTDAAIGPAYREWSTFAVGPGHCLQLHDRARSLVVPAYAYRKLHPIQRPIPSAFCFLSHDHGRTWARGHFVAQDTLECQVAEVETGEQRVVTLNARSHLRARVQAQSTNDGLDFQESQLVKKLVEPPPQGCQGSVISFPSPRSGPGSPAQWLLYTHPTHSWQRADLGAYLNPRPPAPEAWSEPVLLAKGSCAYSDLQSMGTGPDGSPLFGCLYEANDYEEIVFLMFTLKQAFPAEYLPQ

[10] = test system: A. ureafaciens sialidase; assay: Sialidase substrate specificity of Leg glycosides (HPLC/capillary electrophoresis), A. ureafaciens sialidase; format: biochemical, Arthrobacter ureafaciens; conditions: pH 5.5
[11] = biological target: T3, V. cholerae sialidase (Vibrio cholerae serotype O1, UniProt P0C6E9); assay: Sialidase substrate specificity of Leg glycosides (HPLC/capillary electrophoresis), V. cholerae sialidase; format: biochemical; conditions: pH 5.5
T3 construct: purchased Roche

[12] = biological target: C. perfringens sialidase (CpNanH) (Clostridium perfringens, UniProt P10481); format: biochemical; conditions: 37° C., 16 hs, pH 5.0
[13] = biological target: T4, BiNanH2 (Bifidobacterium longum, UniProt A0ACD7UU12); assay: Sialidase substrate specificity of Leg glycosides (HPLC/capillary electrophoresis), BiNanH2; format: biochemical, Bifidobacterium infantis; conditions: 37° C., 16 hs, pH 5.0
T4 sequence (A0ACD7UU12 1-394): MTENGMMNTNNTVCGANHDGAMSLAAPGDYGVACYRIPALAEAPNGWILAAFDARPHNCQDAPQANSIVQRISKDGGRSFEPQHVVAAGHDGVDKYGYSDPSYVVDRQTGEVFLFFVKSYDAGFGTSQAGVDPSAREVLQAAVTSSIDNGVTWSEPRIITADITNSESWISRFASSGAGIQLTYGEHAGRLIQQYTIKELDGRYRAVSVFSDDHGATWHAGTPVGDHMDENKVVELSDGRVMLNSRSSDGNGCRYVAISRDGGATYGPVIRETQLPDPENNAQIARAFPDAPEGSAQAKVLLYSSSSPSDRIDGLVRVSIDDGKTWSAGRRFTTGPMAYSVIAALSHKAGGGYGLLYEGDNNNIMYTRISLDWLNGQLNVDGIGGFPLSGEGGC

[14] = biological target: T5, SpNanA (Streptococcus pneumoniae, UniProt P62575); assay: Sialidase substrate specificity of Leg glycosides (HPLC/capillary electrophoresis), SpNanA; format: biochemical; conditions: 37° C., 16 hs, pH 6.0
T5 construct: made in house

[15] = biological target: T6, SpNanB (Streptococcus pneumoniae serotype 4, UniProt Q54727, E68D/K536E/K577E/N393D/S59P); assay: Sialidase substrate specificity of Leg glycosides (HPLC/capillary electrophoresis), SpNanB; format: biochemical; conditions: 37° C., 16 hs, pH 6.0
T6 construct: made in house

[16] = biological target: SpNanC (Streptococcus pneumoniae, UniProt A0A0H2UQE4); assay: Sialidase substrate specificity of Leg glycosides (HPLC/capillary electrophoresis), SpNanC; format: biochemical; conditions: 37° C., 16 hs, pH 6.5

CC(=O)NC[C@@H](O)[C@@H](O)[C@@H]1O[C@@](O[C@H]2[C@@H](O)[C@@H](CO)O[C@@H](O[C@H]3[C@H](O)[C@@H](O)[C@H](OCCCN)O[C@@H]3CO)[C@@H]2O)(C(=O)O)C[C@H](O)[C@H]1NC(C)=O [Neu5Ac9NAcα3Galβ4GlcβProNH2, 3-Aminopropyl O-(5,9-Diacetamido-3,5,9-trideoxy-D-glycero-α-D-galacto-2-nonulopyranosylonic acid)-(2→3)-O-β-D-galactopyranosyl-(1→4)-β-D-glucopyranoside]
binding of hSiglec-9 on glycan microarray [1]: observable binding | binding of PToV on glycan microarray [2]: prefer binding | stability of the 9-modification towards esterase active PToV [3]: stability of 9NAc

CC(=O)N[C@H]1[C@H]([C@H](O)[C@H](O)COC(C)=O)OC(O)(C(=O)O)C[C@@H]1O (stereo partly drawn) [Neu5,9Ac2, 9-O-acetyl-N-acetylneuraminic acid]
turnover on cell surface ([4]; 1 mM for two days, then sugar removed, monitored for 4 days with PToV (esterase inactive) probe): faster than that of Neu5Ac9NAc | cell surface incorporation detected with PToV probe ([4]; 1 mM free sialic acid, three days of feeding): detected on the cell surface | expression of CD22 ligand on fed cells [5]: between the two | incorporation on the cell membrane (DMB-HPLC) [6]: showed incorporation

CC(=O)N[C@H]1[C@H]([C@H](O)[C@H](O)COC(C)=O)O[C@@](O[C@H]2[C@@H](O)[C@@H](CO)O[C@@H](O[C@H]3[C@H](O)[C@@H](O)[C@H](OCCCN)O[C@@H]3CO)[C@@H]2O)(C(=O)O)C[C@@H]1O [Neu5,9Ac2α3Galβ4GlcβProNH2]
loss of the OAc group ([7]; AUS treatment followed by DMB derivatization at low temperature (FIG. 2B)): 1.5% | OAc group lost from the 9-position of Neu5Ac or migrated to 7- and 8-positions ([7]; release of sialic acids with acetic acid, DMB derivatization, HPLC (FIG. 2A)): ~45% | sialic acid de-O-acetylated ([7]; standard blocking condition (ethanolamine in Tris-HCl buffer, pH 9.0)): about 5% | OAc group released ([7]; stock solution after three months at −20° C. and a few freeze-thaw cycles): 4% | loss of OAc ([7]; storage in phosphate buffer (pH 8.4) at room temperature): about 3% | binding of hSiglec-9 on glycan microarray [1]: observable binding | binding of PToV on glycan microarray [2]: slightly stronger binding to the 9OAc derivative | stability of the 9-modification towards esterase active PToV [3]: esterase lability of 9OAc

C[C@@H](O)[C@@H](N=[N+]=[N-])C1O[C@@](OC2C(O)[C@H](Oc3ccc([N+](=O)[O-])cc3)OC(CO)[C@@H]2O)(C(=O)O)CC(O)[C@H]1N=[N+]=[N-] (stereo partly drawn) [3-13, Leg5,7diN3α2-3GalβpNP]
substrate for the α2-3-sialidase activity of wild-type PmST1 [8]: not | activity of hNEU2 for the compound [9]: did not show activity | activity of A. ureafaciens sialidase for the compound [10]: did not show activity | activity of V. cholerae sialidase for the compound [11]: did not show activity | activity of C. perfringens sialidase (CpNanH) for the compound [12]: did not show activity | activity of BiNanH2 for the compound [13]: did not show activity | activity of SpNanA for the compound [14]: did not show activity | activity of SpNanB for the compound [15]: did not show activity | activity of SpNanC for the compound [16]: did not show activity

CC(=O)N[C@H]1[C@H]([C@H](O)[C@H](O)CO)OC(O)(C(=O)O)C[C@@H]1O (stereo partly drawn) [Neu5Ac, N-acetylneuraminic acid]
expression of CD22 ligand on fed cells [5]: high expression of CD22 ligand | incorporation on the cell membrane (DMB-HPLC) [6]: showed incorporation

CC(=O)N[C@H]1[C@H]([C@H](O)[C@H](O)CO)O[C@@](O[C@H]2[C@@H](O)[C@@H](CO)O[C@@H](O[C@H]3[C@H](O)[C@@H](O)[C@H](OCCCN)O[C@@H]3CO)[C@@H]2O)(C(=O)O)C[C@@H]1O [Neu5Acα3Galβ4GlcβProNH2]
binding of hSiglec-9 on glycan microarray [1]: prefers binding
